Like-named read-outs stand apart in the source and are kept apart here.
Legend:
[1] = tested on: Hep-G2 cells; experiment: cell toxicity CC50; assay type: cell-based; conditions: mean of at least two experiments, read-out: Cell Cytotoxicity CC50
[2] = tested on: RSV (RSV A2 ECACC, 0709161v); experiment: RSV plaque reduction assay; assay type: cell-based, respiratory syncytial virus; conditions: mean of at least two experiments unless noted (n = 1)
In short: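 Hep-G2 monolayers infected with 100 PFU/well RSV A2 premixed with eight serial compound dilutions (2 h, 37° C.), then kept 2 days under CMC overlay with compound in DMEM/2% FBS. Plaques immunostained (HRP/TrueBlue) and counted; % infection versus virus control gives EC50, mean of at least two experiments, rounded.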

[3] = cell toxicity CC50; assay type: cell-based; conditions: human; Hep-G2 cells; mean of at least two experiments; read-out: Cell Cytotoxicity CC50
[4] = read-out: RSV A2 Plaque EC50, RSV A2 in Hep-G2 cells
[5] = human respiratory syncytial virus, HepG2, read-out: RSV A2 Plaque EC50, RSV A2 in Hep-G2 cells

For `O=C(N[C@H]1N=C(c2ccccc2)c2cccc(F)c2NC1=O)c1c(-c2ccccc2F)nn2c1OC(CO)CC2` (stereo partly drawn) [Example 123, N-[(3S)-9-Fluoro-2-oxo-5-phenyl-1,3-dihydro-1,4-benzodiazepin-3-yl]-2-(2-fluorophenyl)-5-(hydroxymethyl)-6,7-dihydro-5H-pyrazolo[5,1-b][1,3]oxazine-3-carboxamide], the CC50 [1] was > 25000 nM and the EC50 ([2]; RSV A2 in Hep-G2 cells, read-out: RSV A2 Plaque EC50) was 79 nM.

With `COCC1CCn2nc(-c3ccccc3F)c(C(=O)N[C@H]3N=C(c4ccccc4)c4cccc(F)c4NC3=O)c2O1` (single isomer, unassigned) [Example 191-2, (5S*)-N-[(3S)-9-fluoro-2-oxo-5-phenyl-1,3-dihydro-1,4-benzodiazepin-3-yl]-2-(2-fluorophenyl)-5-(methoxymethyl)-6,7-dihydro-5H-pyrazolo[5,1-b][1,3]oxazine-3-carboxamide] the CC50 [1] was > 25000 nM and the EC50 [2, 4] was 280 nM.

In the case of `COCC1CCn2nc(-c3ccccc3F)c(C(=O)N[C@H]3N=C(c4ccccc4)c4cccc(F)c4NC3=O)c2O1` (single isomer, unassigned) [Example 191-1, (5R*)-N-[(3S)-9-fluoro-2-oxo-5-phenyl-1,3-dihydro-1,4-benzodiazepin-3-yl]-2-(2-fluorophenyl)-5-(methoxymethyl)-6,7-dihydro-5H-pyrazolo[5,1-b][1,3]oxazine-3-carboxamide], the CC50 [3] is reported as > 25000 nM and the EC50 [2, 4] is reported as 83 nM.

In the case of `CC1CCn2nc(Cc3ccccc3)c(C(=O)N[C@H]3N=C(c4ccccc4)c4cccc(F)c4NC3=O)c2O1` (stereo in doubt) [Example 109, (5S)-2-Benzyl-N-[(3S)-9-fluoro-2-oxo-5-phenyl-1,3-dihydro-1,4-benzodiazepin-3-yl]-5-methyl-6,7-dihydro-5H-pyrazolo[5,1-b][1,3]oxazine-3-carboxamide], the CC50 [3] is reported as > 25000 nM and the EC50 [2, 5] is reported as 114 nM.

In the case of `O=C(N[C@H]1N=C(c2ccccc2)c2cccc(F)c2NC1=O)c1c(-c2ccccc2F)nn2c1OC(CO)CC2` (single isomer, unassigned) [Example 190-1, (5R*)-N-[(3S)-9-Fluoro-2-oxo-5-phenyl-1,3-dihydro-1,4-benzodiazepin-3-yl]-2-(2-fluorophenyl)-5-(hydroxymethyl)-6,7-dihydro-5H-pyrazolo[5,1-b][1,3]oxazine-3-carboxamide], the CC50 [3] is reported as > 25000 nM and the EC50 [2, 5] is reported as 98 nM.

In the case of `CC1(C)COc2c(C(=O)N[C@H]3N=C(c4ccccc4)c4ccccc4NC3=O)c(-c3ccccc3F)nn2C1` [Example 40, 2-(2-Fluorophenyl)-6,6-dimethyl-N-[(3S)-2-oxo-5-phenyl-1,3-dihydro-1,4-benzodiazepin-3-yl]-5,7-dihydropyrazolo[5,1-b][1,3]oxazine-3-carboxamide], the CC50 [3] is reported as > 25000 nM and the EC50 [2, 5] is reported as 57 nM.

For `CCc1ccc(-c2nn3c(c2C(=O)N[C@H]2N=C(c4ccccc4)c4ccccc4NC2=O)OCC2(CCC2)C3)cn1` [Example 176, 2-(6-Ethylpyridin-3-yl)-N-[(3S)-2-oxo-5-phenyl-1,3-dihydro-1,4-benzodiazepin-3-yl]spiro[5,7-dihydropyrazolo[5,1-b][1,3]oxazine-6,1′-cyclobutane]-3-carboxamide], the CC50 [3] was > 25000 nM and the EC50 [2, 5] was 63 nM.

With `C[C@@H]1CCn2nc(-c3cc(C4CC4)cnc3F)c(C(=O)N[C@H]3N=C(c4ccccc4)c4cccc(F)c4NC3=O)c2O1` [Example 53, (5R)-2-(5-Cyclopropyl-2-fluoro-3-pyridyl)-N-[(3S)-9-fluoro-2-oxo-5-phenyl-1,3-dihydro-1,4-benzodiazepin-3-yl]-5-methyl-6,7-dihydro-5H-pyrazolo[5,1-b][1,3]oxazine-3-carboxamide] the CC50 [3] was > 25000 nM and the EC50 [2, 5] was 92 nM.

For `O=C(N[C@H]1N=C(c2ccccc2)c2cccc(F)c2NC1=O)c1c(-c2ccccc2F)nn2c1OC1(CC2)CC1` [Example 7, N-[(3S)-9-fluoro-2-oxo-5-phenyl-1,3-dihydro-1,4-benzodiazepin-3-yl]-2-(2-fluorophenyl)spiro[6,7-dihydropyrazolo[5,1-b][1,3]oxazine-5,1′-cyclopropane]-3-carboxamide], the CC50 [3] was > 25000 nM and the EC50 [2, 5] was 32 nM.

For `C[C@@H]1CCn2nc(-c3ccc(CC(C)(C)O)nc3)c(C(=O)N[C@H]3N=C(c4ccccc4)c4cccc(F)c4NC3=O)c2O1` [Example 85, (5R)-2-[6-(2-Hydroxy-2-methylpropyl)pyridin-3-yl]-5-methyl-N-[(3S)-9-fluoro-2-oxo-5-phenyl-1,3-dihydro-1,4-benzodiazepin-3-yl]-6,7-dihydro-5H-pyrazolo[5,1-b][1,3]oxazine-3-carboxamide], the CC50 [3] was > 25000 nM and the EC50 [2, 5] was 121 nM.

In the case of `CN(C)CC1COc2c(C(=O)N[C@H]3N=C(c4ccccc4)c4cccc(F)c4NC3=O)c(-c3ccccc3F)nn2C1` (single isomer, unassigned) [Example 171-2, (6S*)-6-[(Dimethylamino)methyl]-N-[(3S)-9-fluoro-2-oxo-5-phenyl-1,3-dihydro-1,4-benzodiazepin-3-yl]-2-(2-fluorophenyl)-6,7-dihydro-5H-pyrazolo[5,1-b][1,3]oxazine-3-carboxamide], the CC50 [3] is reported as > 25000 nM and the EC50 [2, 5] is reported as 56 nM.

For `O=C(N[C@H]1N=C(c2ccccc2)c2ccccc2NC1=O)c1c(-c2ccc(F)cc2F)nn2c1OCCC2` [Example 1, 2-(2,4-Difluorophenyl)-N-[(3S)-2-oxo-5-phenyl-1,3-dihydro-1,4-benzodiazepin-3-yl]-6,7-dihydro-5H-pyrazolo[5,1-b][1,3]oxazine-3-carboxamide], the CC50 [3] was > 25000 nM and the EC50 [2, 5] was 33 nM.

In the case of `Cc1ccc(-c2nn3c(c2C(=O)N[C@H]2N=C(c4ccccc4)c4ccccc4NC2=O)O[C@H](C)CC3)c(C)n1` [Example 57, (5R)-2-(2,6-Dimethyl-3-pyridyl)-5-methyl-N-[(3S)-2-oxo-5-phenyl-1,3-dihydro-1,4-benzodiazepin-3-yl]-6,7-dihydro-5H-pyrazolo[5,1-b][1,3]oxazine-3-carboxamide], the CC50 [3] is reported as > 25000 nM and the EC50 [2, 5] is reported as 353 nM.

In the case of `C[C@@H]1CCn2nc(-c3ccc(N4C[C@H]5C[C@@H]4CO5)nc3F)c(C(=O)N[C@H]3N=C(c4ccccc4)c4cccc(F)c4NC3=O)c2O1` (single isomer, unassigned) [Example 90], the CC50 [3] is reported as > 25000 nM and the EC50 [2, 5] is reported as 20 nM.

In the case of `CCn1cc(-c2nn3c(c2C(=O)N[C@H]2N=C(c4ccccc4)c4cccc(F)c4NC2=O)OCC(CO)C3)cn1` (stereo partly drawn) [Example 130, 2-(1-Ethylpyrazol-4-yl)-N-[(3S)-9-fluoro-2-oxo-5-phenyl-1,3-dihydro-1,4-benzodiazepin-3-yl]-6-(hydroxymethyl)-6,7-dihydro-5H-pyrazolo[5,1-b][1,3]oxazine-3-carboxamide], the CC50 [3] is reported as > 25000 nM and the EC50 [2, 5] is reported as 350 nM.

With `O=C(N[C@H]1N=C(c2ccccc2)c2cccc(F)c2NC1=O)c1c(-c2ccc(F)cc2F)nn2c1OCC(CO)C2` (stereo partly drawn) [Example 128, 2-(2,4-Difluorophenyl)-N-[(3S)-9-fluoro-2-oxo-5-phenyl-1,3-dihydro-1,4-benzodiazepin-3-yl]-6-(hydroxymethyl)-6,7-dihydro-5H-pyrazolo[5,1-b][1,3]oxazine-3-carboxamide] the CC50 [3] was > 25000 nM and the EC50 [2, 5] was 41 nM.

For `CCNc1ccc(-c2nn3c(c2C(=O)N[C@H]2N=C(c4ccccc4)c4cccc(F)c4NC2=O)O[C@H](C)CC3)cn1` [Example 52, (5R)-2-[6-(Ethylamino)-3-pyridyl]-N-[(3S)-9-fluoro-2-oxo-5-phenyl-1,3-dihydro-1,4-benzodiazepin-3-yl]-5-methyl-6,7-dihydro-5H-pyrazolo[5,1-b][1,3]oxazine-3-carboxamide], the CC50 [3] was > 25000 nM and the EC50 [2, 5] was 28 nM.

For `CCc1ccc(-c2nn3c(c2C(=O)N[C@H]2N=C(c4ccccc4)c4cccc(F)c4NC2=O)OCC2(CCC2)C3)cn1` [Example 177, 2-(6-Ethylpyridin-3-yl)-N-[(3S)-9-fluoro-2-oxo-5-phenyl-1,3-dihydro-1,4-benzodiazepin-3-yl]spiro[5,7-dihydropyrazolo[5,1-b][1,3]oxazine-6,1′-cyclobutane]-3-carboxamide], the CC50 [3] was > 25000 nM and the EC50 [2, 5] was 125 nM.

In the case of `CC(C)Nc1ccc(-c2nn3c(c2C(=O)N[C@H]2N=C(c4ccccc4)c4cccc(F)c4NC2=O)O[C@@H](C)CC3)c(F)n1` [Example 31, (5S)-N-[(3S)-9-fluoro-2-oxo-5-phenyl-1,3-dihydro-1,4-benzodiazepin-3-yl]-2-[2-fluoro-6-(propan-2-ylamino)pyridin-3-yl]-5-methyl-6,7-dihydro-5H-pyrazolo[5,1-b][1,3]oxazine-3-carboxamide], the CC50 [3] is reported as > 25000 nM and the EC50 [2, 5] is reported as 11 nM.

For `C[C@@H]1CCn2nc(-c3cnn(CCO)c3)c(C(=O)N[C@H]3N=C(c4ccccc4)c4cccc(F)c4NC3=O)c2O1` [Example 117, (5R)-N-[(3S)-9-fluoro-2-oxo-5-phenyl-1,3-dihydro-1,4-benzodiazepin-3-yl]-2-[1-(2-hydroxyethyl)pyrazol-4-yl]-5-methyl-6,7-dihydro-5H-pyrazolo[5,1-b][1,3]oxazine-3-carboxamide], the CC50 [3] was > 25000 nM and the EC50 [2, 5] was 434 nM.

For `O=C(N[C@H]1N=C(c2ccccc2)c2cccc(F)c2NC1=O)c1c(-c2ccncc2F)nn2c1OCCC2` [Example 80, N-[(3S)-9-fluoro-2-oxo-5-phenyl-1,3-dihydro-1,4-benzodiazepin-3-yl]-2-(3-fluoropyridin-4-yl)-6,7-dihydro-5H-pyrazolo[5,1-b][1,3]oxazine-3-carboxamide], the CC50 [3] was > 25000 nM and the EC50 [2, 5] was 64 nM.

For `Cc1nn(C)cc1-c1nn2c(c1C(=O)N[C@H]1N=C(c3ccccc3)c3cccc(F)c3NC1=O)O[C@H](C)CC2` [Example 115, (5R)-2-(1,3-Dimethylpyrazol-4-yl)-N-[(3S)-9-fluoro-2-oxo-5-phenyl-1,3-dihydro-1,4-benzodiazepin-3-yl]-5-methyl-6,7-dihydro-5H-pyrazolo[5,1-b][1,3]oxazine-3-carboxamide], the CC50 [3] was > 25000 nM and the EC50 [2, 5] was 226 nM.

Source: patent publication US12678446B2 (PFIZER INC., priority 2020, dated 2026)
